Test results as given in patent US9067871B2, “Aminotetraline derivatives, pharmaceutical compositions containing them, and their use in therapy” (ABBVIE DEUTSCHLAND GMBH & CO KG, priority 2009, dated 2015).
Where a name gives a salt, the structure may show the parent alone. Read-outs that look alike come from different tables or passages of the source.

Tests used:
human GlyT1c = human GlyT1c (Homo sapiens (Human), UniProt P48067); assay: [3H]-Glycine uptake into recombinant CHO cells expressing human GlyT1; type: cell-based
Sequence of human GlyT1c (P48067 whole entry): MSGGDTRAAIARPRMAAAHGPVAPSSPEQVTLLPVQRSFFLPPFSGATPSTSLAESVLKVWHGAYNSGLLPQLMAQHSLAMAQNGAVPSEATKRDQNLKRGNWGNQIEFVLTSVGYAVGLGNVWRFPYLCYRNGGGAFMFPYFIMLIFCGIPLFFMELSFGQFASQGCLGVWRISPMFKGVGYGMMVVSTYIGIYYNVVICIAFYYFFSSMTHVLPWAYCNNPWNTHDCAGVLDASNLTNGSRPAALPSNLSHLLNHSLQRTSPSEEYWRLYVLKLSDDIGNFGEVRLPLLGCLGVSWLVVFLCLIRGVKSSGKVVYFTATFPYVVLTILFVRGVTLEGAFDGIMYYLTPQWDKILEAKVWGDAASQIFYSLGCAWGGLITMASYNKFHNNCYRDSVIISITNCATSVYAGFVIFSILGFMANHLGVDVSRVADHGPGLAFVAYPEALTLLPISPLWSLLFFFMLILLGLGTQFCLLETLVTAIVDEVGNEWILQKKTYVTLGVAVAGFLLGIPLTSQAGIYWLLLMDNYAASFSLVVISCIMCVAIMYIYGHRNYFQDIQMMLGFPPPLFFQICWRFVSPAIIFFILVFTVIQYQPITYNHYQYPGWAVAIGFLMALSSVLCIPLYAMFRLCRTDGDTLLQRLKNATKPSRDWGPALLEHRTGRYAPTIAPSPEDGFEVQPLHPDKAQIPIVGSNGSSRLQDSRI
Method: 1. [^3H]-Glycine uptake into recombinant CHO cells expressing human GlyT1: Human GlyT1c expressing recombinant hGlyT1c—5_CHO cells were plated at 20,000 cells per well in 96 well Cytostar-T scintillation microplates (Amersham Biosciences) and cultured to sub-confluency for 24 h. […] 80 μl HBSS buffer were added, followed by 10 μl inhibitor or vehicle (10% DMSO) and 10 μl [^3H]-glycine (TRK71, Amersham Biosciences) to a final concentration of 200 nM for initiation of glycine uptake. The plates were placed in a Wallac Microbeta (PerkinElmer) and continuously counted by solid phase scintillation spectrometry during up to 3 hours. Nonspecific uptake was determined in the presence of 10 μM Org24598.

human GlyT1c transporter = human GlyT1c transporter (Homo sapiens (Human), UniProt P48067); assay: Radioligand binding assay using recombinant CHO cell membranes expressing human GlyT1; conditions: read-out: radioligand binding Kiapp
Sequence of human GlyT1c transporter (P48067 whole entry): as above
Excerpt: 2. Radioligand binding assays using recombinant CHO cell membranes expressing human GlyT1: […]

[1] = hGlyT1c_5_CHO cells, 200 nM [3H]-glycine
[2] = human GlyT1c-expressing CHO cell membranes

Structure (SMILES)	IC50 (human GlyT1c; [1])	Ki (human GlyT1c transporter; [2])	further results
CC(C)(C)OC(=O)NC1CCc2ccc(C#N)cc2C1Cc1ccc(Cl)c(Cl)c1 (stereo not drawn) [Example 34, tert-Butyl[7-cyano-1-(3,4-dichlorobenzyl)-1,2,3,4-tetrahydronaphthalen-2-yl]carbamate]	≤ 1000 µM	≤ 10 µM	
NC1CCc2ccc(O)cc2C1Cc1ccc(Cl)c(Cl)c1 (stereo not drawn) [Example 35, 7-Amino-8-(3,4-dichlorobenzyl)-5,6,7,8-tetrahydronaphthalen-2-ol trifluoroacetate (salt)]	≤ 100 µM	≥ 100 µM	
CCCS(=O)(=O)NCCOc1ccc2c(c1)C(Cc1ccc(Cl)c(Cl)c1)C(N(C)C)CC2 (stereo not drawn) [Example 6]	≤ 1 µM	≤ 0.1 µM	
CCNC1CCc2ccc(OCCNS(=O)(=O)c3cn(C)cn3)cc2C1Cc1ccc(Cl)c(Cl)c1 (stereo not drawn) [Example 23, 1-Methyl-1H-imidazole-4-sulfonic acid {2-[8-(3,4-dichloro-benzyl)-7-ethylamino-5,6,7,8-tetrahydro-naphthalen-2-yloxy]-ethyl}-amide]	≤ 100 µM	≤ 10 µM	
N#Cc1ccc2c(c1)C(Cc1ccc(Cl)cc1)C(N)CC2 (stereo not drawn) [Example 30, 7-Amino-8-(4-chlorobenzyl)-5,6,7,8-tetrahydronaphthalene-2-carbonitrile hydrochloride]	≤ 100 µM	≤ 100 µM	
CCOC(=O)NC1CCc2ccc(OCCNS(=O)(=O)c3cn(C)cn3)cc2C1Cc1ccc(Cl)c(Cl)c1 (stereo not drawn) [Example 2, Ethyl 1-(3,4-dichlorobenzyl)-7-(2-(1-methyl-1H-imidazole-4-sulfonamido)ethoxy)-1,2,3,4-tetrahydronaphthalen-2-ylcarbamate]	≤ 1 µM	≤ 0.1 µM	
Cn1cnc(S(=O)(=O)NCCOc2ccc3c(c2)C(Cc2ccc(Cl)c(Cl)c2)C(N)CC3)c1 (stereo not drawn) [Example 3, N-(2-(7-Amino-8-(3,4-dichlorobenzyl)-5,6,7,8-tetrahydronaphthalen-2-yloxy)ethyl)-1-methyl-1H-imidazole-4-sulfonamide hydrochloride]			IC50 (human GlyT1c): ≤ 0.01 µM; Ki (human GlyT1c transporter): ≤ 0.01 µM
Cc1csc(S(=O)(=O)NCCOc2ccc3c(c2)C(Cc2ccc(Cl)c(Cl)c2)C(N)CC3)c1 (stereo not drawn) [Example 24, 4-Methyl-thiophene-2-sulfonic acid {2-[7-amino-8-(3,4-dichloro-benzyl)-5,6,7,8-tetrahydronaphthalen-2-yloxy]-ethyl}-amide hydrochloride]			IC50 (human GlyT1c): ≤ 10 µM; Ki (human GlyT1c transporter): ≤ 0.1 µM
Cn1cnc(S(=O)(=O)NCCOc2ccc3c(c2)C(Cc2cccc(Cl)c2)C(N)CC3)c1 (stereo not drawn) [Example 48, 1-Methyl-1H-imidazole-4-sulfonic acid {2-[7-amino-8-(3-chloro-benzyl)-5,6,7,8-tetrahydronaphthalen-2-yloxy]-ethyl}-amide hydrochloride]	≤ 0.01 µM	≤ 0.01 µM	
CCCS(=O)(=O)NCCOc1ccc2c(c1)C(Cc1ccc(Cl)cc1Cl)C(N)CC2 (stereo not drawn) [Example 75, Propane-1-sulfonic acid {2-[7-amino-8-(2,4-dichloro-benzyl)-5,6,7,8-tetrahydronaphthalen-2-yloxy]-ethyl}-amide hydrochloride]	≤ 10 µM	≤ 1 µM	
CCOC(=O)NC1CCc2ccc(OCCNS(=O)(=O)CCCF)cc2C1Cc1ccc(Cl)c(Cl)c1 (stereo not drawn) [Example 22, {1-(3,4-Dichloro-benzyl)-7-[2-(3-fluoro-propane-1-sulfonylamino)-ethoxy]-1,2,3,4-tetrahydro-naphthalen-2-yl}-carbamic acid ethyl ester]	≤ 1000 µM	≤ 10 µM	
CCOC(=O)NC1CCc2ccc(OCCNS(=O)(=O)c3cnc(C)[nH]3)cc2C1Cc1cccc(Cl)c1 (stereo not drawn) [Example 52, {1-(3-Chloro-benzyl)-7-[2-(2-methyl-3H-imidazole-4-sulfonylamino)-ethoxy]-1,2,3,4-tetrahydro-naphthalen-2-yl}-carbamic acid ethyl ester]	≤ 10 µM	≤ 10 µM	
CCN(CCOc1ccc2c(c1)C(Cc1ccccc1)C(N1CCCC1)CC2)S(=O)(=O)c1cnn(C)c1 (stereo not drawn) [Example 124, N-(2-{[8-Benzyl-7-(pyrrolidin-1-yl)-5,6,7,8-tetrahydronaphthalen-2-yl]oxy}ethyl)-N-ethyl-1-methyl-1H-pyrazole-4-sulfonamide hydrochloride]		≤ 1 µM	
NC1CCc2ccc(CCCNS(=O)(=O)CC3CC3)cc2C1Cc1cccc(Cl)c1 (stereo not drawn) [Example 296, N-{3-[7-Amino-8-(3-chloro-benzyl)-5,6,7,8-tetrahydro-naphthalen-2-yl]-propyl}-C-cyclopropyl-methanesulfonamide hydrochloride]		≤ 0.1 µM	
NC1CCc2ccc(OCCNS(=O)(=O)CC3CC3)cc2C1Cc1ccccc1 (stereo not drawn) [Example 121, N-(2-{[7-Amino-8-benzyl-5,6,7,8-tetrahydronaphthalen-2-yl]oxy}ethyl)-1-cyclopropylmethanesulfonamide hydrochloride]		≤ 0.01 µM	
Cn1cnc(S(=O)(=O)NCCOc2ccc3c(c2)C(Cc2cccc(F)c2)C(N2CCC2)CC3)c1 (stereo not drawn) [Example 141, N-(2-{[7-(Azetidin-1-yl)-8-(3-fluorobenzyl)-5,6,7,8-tetrahydronaphthalen-2-yl]oxy}ethyl)-1-methyl-1H-imidazole-4-sulfonamide hydrochloride]		≤ 0.01 µM	
CCCS(=O)(=O)NCCCc1ccc2c(c1)C(Cc1ccccc1)C(N1CCCC1)CC2 (stereo not drawn) [Example 265, Propane-1-sulfonic acid [3-(8-benzyl-7-pyrrolidin-1-yl-5,6,7,8-tetrahydro-naphthalen-2-yl)propyl]-amide hydrochloride]		≤ 1 µM	
Cn1cnc(S(=O)(=O)NCCOc2ccc3c(c2)C(Cc2ccccc2)C(N2CCCC2)CC3)c1 (single isomer, unassigned; (-)) [Example 117, (−)-N-(2-(8-benzyl-7-(pyrrolidin-1-yl)-5,6,7,8-tetrahydronaphthalen-2-yloxy)ethyl)-1-methyl-1H-imidazole-4-sulfonamide hydrochloride]			Ki (human GlyT1c transporter; human GlyT1c-expressing CHO cell membranes, hydrochloride): ≤ 0.01 µM

Now from value to molecule, other results behind:

IC50 (human GlyT1c; [1])	Ki (human GlyT1c transporter; [2])	Structure (SMILES)	further results
≤ 10 µM	≤ 10 µM	CCCS(=O)(=O)N(C)CCOc1ccc2c(c1)C(Cc1cccc(Cl)c1)C(NC(=O)OCC)CC2 (stereo not drawn) [Example 78, (1-(3-Chloro-benzyl)-7-{2-[methyl-(propane-1-sulfonyl)-amino]-ethoxy}-1,2,3,4-tetrahydronaphthalen-2-yl)-carbamic acid ethyl ester]	
≤ 100 µM	≤ 10 µM	CCOC(=O)NC1CCc2ccc(C#N)cc2C1Cc1ccc(Cl)c(Cl)c1 (stereo not drawn) [Example 32, Ethyl [7-cyano-1-(3,4-dichlorobenzyl)-1,2,3,4-tetrahydronaphthalen-2-yl]carbamate]	
≤ 1000 µM	≤ 100 µM	CCOC(=O)NC1CCc2ccc(OCCNS(=O)(=O)c3ccccc3)cc2C1Cc1ccc(Cl)c(Cl)c1 (stereo not drawn) [Example 13, [7-(2-Benzenesulfonylamino-ethoxy)-1-(3,4-dichloro-benzyl)-1,2,3,4-tetrahydronaphthalen-2-yl]-carbamic acid ethyl ester]	
≤ 10 µM	≤ 10 µM	CCCS(=O)(=O)NCCOc1ccc2c(c1)C(Cc1ccc(Cl)c(Cl)c1)C(NC(=O)OCC)CC2 (stereo not drawn) [Example 7]	
≤ 10 µM	≤ 1 µM	Cc1nc(C)c(S(=O)(=O)NCCOc2ccc3c(c2)C(Cc2cccc(Cl)c2)C(N)CC3)s1 (stereo not drawn) [Example 57, 2,4-Dimethyl-thiazole-5-sulfonic acid {2-[7-amino-8-(3-chloro-benzyl)-5,6,7,8-tetrahydronaphthalen-2-yloxy]-ethyl}-amide]	
≤ 1000 µM	≤ 10 µM	CCOC(=O)NC1CCc2ccc(OCCNS(=O)(=O)c3ccc(C)s3)cc2C1Cc1ccc(Cl)cc1Cl (stereo not drawn) [Example 64, {1-(2,4-Dichloro-benzyl)-7-[2-(5-methyl-thiophene-2-sulfonylamino)-ethoxy]-1,2,3,4-tetrahydro-naphthalen-2-yl}-carbamic acid ethyl ester]	
≤ 0.01 µM	≤ 0.01 µM	Cn1cc(S(=O)(=O)NCCOc2ccc3c(c2)C(Cc2cccc(Cl)c2)C(N)CC3)cn1 (stereo not drawn) [Example 47, 1-Methyl-1H-pyrazole-4-sulfonic acid {2-[7-amino-8-(3-chloro-benzyl)-5,6,7,8-tetrahydronaphthalen-2-yloxy]-ethyl}-amide hydrochloride]	
	≤ 0.1 µM	CCCS(=O)(=O)NCCOc1ccc2c(c1)C(Cc1ccccc1F)C(NC)CC2 (stereo not drawn) [Example 311, Propane-1-sulfonic acid {2-[8-(2-fluoro-benzyl)-7-methylamino-5,6,7,8-tetrahydronaphthalen-2-yloxy]-ethyl}-amide hydrochloride]	
	≤ 0.1 µM	O=S(=O)(NCCOc1ccc2c(c1)C(Cc1ccccc1)C(N1CCC1)CC2)C1CCC1 (stereo not drawn) [Example 147, N-(2-{[7-(Azetidin-1-yl)-8-benzyl-5,6,7,8-tetrahydronaphthalen-2-yl]oxy}ethyl)cyclobutanesulfonamide]	
	> 10 µM	CCOC(=O)NC1CCc2ccc(OCC3CN(S(=O)(=O)CC4CC4)C3)cc2C1Cc1cccc(Cl)c1 (stereo not drawn) [Example 289, [1-(3-Chloro-benzyl)-7-(1-cyclopropylmethanesulfonyl-azetidin-3-ylmethoxy)-1,2,3,4-tetrahydro-naphthalen-2-yl]-carbamic acid ethyl ester]	
	≤ 0.01 µM	Cn1cnc(S(=O)(=O)NCCOc2ccc3c(c2)C(Cc2cc(F)cc(Cl)c2)C(N)CC3)c1 (stereo not drawn) [Example 151, N-(2-{[7-Amino-8-(3-chloro-5-fluorobenzyl)-5,6,7,8-tetrahydronaphthalen-2-yl]oxy}ethyl)-1-methyl-1H-imidazole-4-sulfonamide hydrochloride]	
